{
  "source": "patent US9249159B2",
  "about": "“Composition for treating hepatitis C virus, regulating phosphorylation of replicase” (Industry-Academic Cooperation Foundation, Yonsei University, priority 2011, dated 2016)",
  "key": {"[1]": {"biological_target": "recombinant active PRK2 (Homo sapiens, UniProt Q16513)", "sequence (Q16513 whole entry)": "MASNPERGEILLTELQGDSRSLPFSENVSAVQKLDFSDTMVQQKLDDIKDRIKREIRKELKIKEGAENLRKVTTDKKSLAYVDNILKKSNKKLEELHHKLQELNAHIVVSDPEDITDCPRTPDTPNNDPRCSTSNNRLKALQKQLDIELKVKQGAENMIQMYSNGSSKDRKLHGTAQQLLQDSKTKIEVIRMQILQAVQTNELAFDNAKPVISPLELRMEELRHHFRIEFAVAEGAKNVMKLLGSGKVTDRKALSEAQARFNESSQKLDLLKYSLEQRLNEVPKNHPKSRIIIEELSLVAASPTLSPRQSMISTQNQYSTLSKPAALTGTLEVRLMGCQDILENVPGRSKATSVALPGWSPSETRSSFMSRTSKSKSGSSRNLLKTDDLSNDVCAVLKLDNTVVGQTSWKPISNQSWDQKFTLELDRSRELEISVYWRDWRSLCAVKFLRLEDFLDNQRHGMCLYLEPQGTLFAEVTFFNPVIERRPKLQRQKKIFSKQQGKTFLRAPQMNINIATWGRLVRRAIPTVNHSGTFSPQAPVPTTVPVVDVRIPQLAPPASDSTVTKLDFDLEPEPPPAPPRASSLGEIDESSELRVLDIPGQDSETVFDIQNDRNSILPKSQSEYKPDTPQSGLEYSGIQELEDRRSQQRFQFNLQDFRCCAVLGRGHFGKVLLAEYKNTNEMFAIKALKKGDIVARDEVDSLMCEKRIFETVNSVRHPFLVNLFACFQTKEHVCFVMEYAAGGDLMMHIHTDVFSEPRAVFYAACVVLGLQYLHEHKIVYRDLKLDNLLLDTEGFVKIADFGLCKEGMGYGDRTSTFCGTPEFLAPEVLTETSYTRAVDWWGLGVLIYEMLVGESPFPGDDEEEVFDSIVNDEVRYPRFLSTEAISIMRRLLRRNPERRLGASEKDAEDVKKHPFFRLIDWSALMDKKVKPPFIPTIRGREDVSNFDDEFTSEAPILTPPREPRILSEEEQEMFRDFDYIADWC", "test": "In vitro kinase assay: recombinant PRK2 phosphorylating HCV NS5B", "format": "biochemical", "details": "gamma-32P ATP and 100 μM ATP, autoradiography", "experimental": "Then, in order to test an HCV NS5B protein phosphorylation inhibition effect of the screened novel PRK2 inhibitor, in vitro kinase assay was carried out.\nUsing a recombinant active PRK2 and purified HCV NS5B protein as substrates, the screened inhibitors #11 and #17 were treated in the presence of gamma-^32P ATP and 100 μM ATP. The reaction mixture was separated by SDS-PAGE (8% gel), and a result thereof was checked by autoradiography.\nFinally, PRK2 and HCV NS5B phosphorylation inhibition effects of the compounds #18, #19, #20, #21 and #22 as the derivatives of the compound #17 were analyzed through in vitro kinase assay.\nA 1 μM recombinant PRK2 and 10 μM HCV NS5B were phosphorylated for 30 minutes in the presence of 10 μCi γ-^32P ATP and 100 μM ATP. The reaction mixture was separated by SDS-PAGE (8% gel), and a result thereof was checked by autoradiography."}, "[2]": {"biological_target": "T1, PRK2 (Homo sapiens, UniProt Q16513)", "T1 construct": "endogenous in cells; host or cells: R-1 (Huh7-derived HCV replicon cells) and Huh7", "T1 sequence (Q16513 whole entry)": "as above", "test": "PRK2 phosphorylation (Thr816) and PRK2 level in R-1 cells by Western blot", "format": "cell-based", "details": "R-1 cell, 100 IU/ml, hourly for 6 hours", "method": "After the R-1 cell line was treated with the PRK2 inhibitor at a final concentration of 10 or 20 μM for 48 hours, phosphorylation or not of Thr^816 residue essential for activity of PRK2 was analyzed by Western blot using a phospho-PRK2 antibody to measure an expression level of phosphorylated PRK2. Immunoblotting using an anti-α-tubulin antibody was carried out to check whether or not the same amount of protein was loaded.\nThen, in order to check whether or not IFN-α affected a PDK1-PRK2 signaling pathway, the R-1 cell was treated with 100 IU/ml of IFN-α hourly for 6 hours. SDS-PAGE was carried out to the cell lysates, and immunoblotting was carried out. The immunoblotting with anti-α-tubulin antibody was used as an internal control for loading. A representative result from one of the three independent experiments showing a similar result was illustrated."}, "[3]": {"system": "genotype 1b HCV subgenomic replicon (R-1 cell line)", "test": "HCV replication (HCV RNA by real-time RT-PCR, NS5B protein by Western blot) in R-1 subgenomic replicon cells", "format": "cell-based, hepatitis C virus genotype 1b", "details": "for decrease of HCV RNA titers with respect to DMSO control: R-1 cell line, 20 μM, 48 hours", "source_text": "In order to check a PRK2 phosphorylation inhibition effect of the novel inhibitors obtained in Example 1, R-1 cell line harboring HCV subgenomic replicons was used.\nThe R-1 cell line was comprised of cis-acting RNA elements of 5′ and 3′-end untranslated regions (UTR) essential for replication of HCV RNA, a selection marker inserted to select a replicated RNA into a portion from which a structural protein coding site was removed, and a non-structural protein (NS3-NS5B)-coding gene required for replication. In the replicon, the selection marker was expressed by the HCV 5′-UTR and internal ribosome entry site (IRES) as a part of a coding gene of a core protein as a structural protein and capsid protein, and HCV non-structural proteins were expressed by IRES of EMCV. In order to obtain replicon cells, a HCV subgenomic replicon RNA was obtained by means of in vitro transcription by using a T7 RNA polymerase, free ribonucleotide was removed by using a spin column, and introduced into a hepatocellular carcinoma cell line by electroporation. In the presence of G418, a stable cell line, i.e. a cell line showing a resistance to G418 through replication of HCV subgenome, was obtained. Expression of the HCV non-structural proteins in this cell line was analyzed by Western blot to confirm that replication was being carried out, and the R-1 cell line was constructed. It was observed that an HCV RNA copy number was about 10^7 copies/mL by a quantitative real-time PCR analysis using a TaqMan probe. The R-1 cell line was a cell line in which HCV RNA replication was being carried out, and thus it could be used to evaluate an HCV replication inhibition effect of a PRK2 activity inhibitor.\nThen, after the R-1 cell line was treated with each of 5 screened PRK2 inhibitors, HA1077 currently and clinically used as a PRK2 activity inhibitor, and Y27632 having a PRK2 activity inhibition effect at a final concentration of 20 μM for 48 hours, levels of HCV NS5B protein and HCV RNA in cell lysates (50 μg) were analyzed by Western blot and real-time RT-PCR.\n(§1) To do so, after the two cell lines were treated with the compound #17 at higher concentrations (60 and 100 μM) than 20 μM for 48 hours, an HCV RNA genome level was checked by a real-time RT-PCR analysis. A value was a mean±standard deviation (SD) of three independent measurements. HCV RNA titer was quantified by real-time PCR analysis. Three independent experiments were performed in triplicate.\n5 derivatives (#18 to #22: refer to FIG. 2) were produced based on the inhibitor #17 showing the best effect. After the R-1 cell line was treated with each of these inhibitors or HA1077 and Y27632 at a final concentration of 20 μM for 48 hours, an HCV RNA genome level was checked by a real-time RT-PCR analysis and expressed in % with respect to a control treated with DSMO. Three independent experiments were conducted repeatedly three times. Data were expressed by mean±SD of the three experiments.\nTotal RNA was extracted from R-1 or HCV (JFH1)-infected cells using TRIzol LS reagent (Invitrogen, Carlsbad, Calif., USA) and purified according to the manufacturer's instructions. HCV RNA levels were quantified by RT-PCR using a primer pair and TaqMan probe targeting a region within the HCV 5′-UTR as described previously. Cellular glyceraldehyde-3-phosphate dehydrogenase was used as an internal control. Assays were performed using the DyNAmo Probe 2-step qRT-PCR Kit (Finnzymes, Espoo, Finland) and a CHROMO4 continuous fluorescence detector (Bio-Rad, Hercules, Calif., USA), according to the manufacturer's instructions.\n(§2) Therefore, anti-HCV activity of 17-DMAG in the R-1 cell was tested at a level lower than 50 nM. To do so, the R-1 cell was treated with a vehicle (0.25% DMSO) or 17-DMAG for 72 hours and the cell lysates (50 μg) and antibodies specific to the proteins were immunoblotted to measure levels of the proteins. An anti-α-tubulin antibody (lower end panel) was used as an internal loading control. […]"}, "[4]": {"system": "genotype 2a HCV (JFH1)-infected Huh7 cells", "test": "HCV RNA level in Huh7 cells infected with HCV (JFH1)", "format": "cell-based, hepatitis C virus genotype 2a", "details": "JFH1-infected Huh7 cell, 100 IU/mL alone, 72 hours", "experimental": "as §1\nFull-length, infectious HCV RNA of the genotype 2a HCV clone JFH1 was prepared by in vitro transcription using the MEGAscript T7 kit (Ambion, Austin, Tex., USA) and electroporated into Huh7 cells as described previously. Briefly, at 72 h post electroporation, culture medium was collected, cleared by low-speed centrifugation, and passed through a 0.45-μm filter (Millipore, Billerica, Mass., USA) before being used for infection of Huh7 cells. Cells were infected with HCV at a multiplicity of infection of 0.3 by adsorption for 3 h with periodic rocking, then washed three times with phosphate-buffered saline (PBS) and maintained in complete DMEM. […]\nTotal RNA was extracted from R-1 or HCV (JFH1)-infected cells using TRIzol LS reagent (Invitrogen, Carlsbad, Calif., USA) and purified according to the manufacturer's instructions. HCV RNA levels were quantified by RT-PCR using a primer pair and TaqMan probe targeting a region within the HCV 5′-UTR as described previously. […] Assays were performed using the DyNAmo Probe 2-step qRT-PCR Kit (Finnzymes, Espoo, Finland) and a CHROMO4 continuous fluorescence detector (Bio-Rad, Hercules, Calif., USA), according to the manufacturer's instructions.\nIn order to analyze whether or not 17-DMAG can inhibit replication in a cell infected with HCV, an experiment was carried out with the genotype 2a HCV infectious clone JFH1, which produces infectious virions in Huh7 or Huh7-derived cell lines. […] After 72 hours, total cellular RNA was extracted and HCV remaining in the infected cell was analyzed by quantitative RT-PCR."}, "[5]": {"system": "PRK2", "test": "PRK2 level in Huh7 cell by immunoblotting", "format": "cell-based", "details": "100 IU/ml IFN-α"}, "[6]": {"system": "PDK1", "test": "PDK1 level and activation in R-1 cell by immunoblotting", "format": "cell-based", "details": "100 IU/ml, hourly for 6 hours", "source_text": "Total cell lysates from cells treated with inhibitors or IFN-α by using antibodies to PDK1, p-PDK1 (S241), PRK2, and p-PRK2 (T816) (products of Cell Signaling Technology, Inc., Beverly, Mass., USA) was used for immunoblotting. In order to detect PKC isoforms α, β, and γ, a polyclonal antibody to a consensus sequence present in three PKC (protein kinase C) isoforms α, β and γ (anti-pan-PKC; Zymed Laboratories, San Francisco, Calif., USA) was used. An anti-α-tubulin antibody (Oncogene Research Products, Cambridge, Mass., USA) was carried out in immunoblotting for checking whether or not the same amount of protein was loaded.\nas §2, with “control. The levels of the proteins were measured by densitometric analysis of immunoblot, and the phosphorylated amounts and relative intensities calculated with respect to PDK1 and PDK2 were converted with respect to α-tubulin signals and then quantitated. As a result of three independent experiments showing similar results, a representative blot picture was illustrated.” for “control.”"}, "[7]": {"system": "HCV NS5B", "test": "NS5B phosphorylation in Huh7TR-NS cell (anti-p-Ser immunoprecipitation, anti-NS5B immunoblot)", "format": "cell-based, hepatitis C virus", "details": "17-DMAG 50 nM or HA1077 20 μM, 48 hours", "experimental": "The human hepatoma stable cell lines Huh7TR-4 and Huh7TR-NS [17], which express the tetracycline repressor and the HCV NS proteins (NS3-NS5) in a tetracycline-inducible manner, respectively, were maintained in the presence of blasticidin S (10 μg/mlL and Zeocine (100 μg/mL). NS protein expression in Huh7TR-NS was induced by addition of 1 μg/mL tetracycline for 24 h. The Huh7 cell-derived cell line R-1, supporting stable, autonomous replication of genotype 1b HCV subgenomic replicon RNA, was described previously. 17-DMAG, the PRK2 inhibitor, HA1077, and the inhibitor of phosphatidylinositol 3-kinase (PI3K), LY294002, were obtained from Sigma-Aldrich (St. Louis, Mo., USA) and Calbiochem Inc. (La Jolla, Calif., USA), and Biomol (Plymouth Meeting, Pa., USA), respectively. IFN-α was purchased from Sigma-Aldrich (1-4276).\nFor co-immunoprecipitation experiment, the cells were resuspended in lysis buffer A (100 mM Tris-HCl, pH 8.0, 150 mM NaCl, 1% Triton X-100, 10 mM NaF, 1 mM Na3VO4, 17.5 mM β-glycerophosphate) supplemented with an EDTA-free protease inhibitor cocktail (Roche Applied Science, Indianapolis, Ind., USA) and incubated on ice for 30 min. […]\nThen, treatment with 17-DMAG (50 nM) or HA1077 (20 μM), a PRK2 inhibitor, was carried out for 48 hours. […] A case without treatment with an inhibitor was expressed as (−)."}},
  "data": [
    {"compound": "O=C(Nc1ccc2[nH]cnc2c1)C1CCCCC1", "note": "[compound #11, cyclohexanecarboxylic acid (1H-benzoimidazole-5-yl)-amide]", "values": [
      {"measurement": "inhibition of in vitro phosphorylation of HCV NS5B protein", "setting": "[1]", "result": "inhibit phosphorylation of HCV NS5B protein"}
    ]},
    {"compound": "IFN-α", "values": [
      {"measurement": "p-PRK2 content or PRK2 content", "setting": "[2]", "result": "any significant change in p-PRK2 content or PRK2 content was not observed"},
      {"measurement": "decrease of content of HCV RNA", "setting": "[3]; R-1 cell, 100 IU/ml alone, 72 hours", "result": "approximately 80%"},
      {"measurement": "inhibition of virus RNA replication", "setting": "[4]", "result": "about 90%"},
      {"measurement": "PDK1 and PRK2 contents and activation", "setting": "[5]", "result": "A similar result was observed"},
      {"measurement": "activation of PDK1", "setting": "[6]", "result": "any change in activation of PDK1 in the treated cell was not observed"}
    ]},
    {"compound": "O=S(=O)(c1cccc2cnccc12)N1CCCNCC1", "note": "[HA1077]", "values": [
      {"measurement": "decrease of HCV RNA titers with respect to DMSO control", "setting": "[3]", "result": 40, "unit": "%"},
      {"measurement": "anti-HCV activity in combined treatment with IFN-α", "setting": "[3]; R-1 cell, HA1077 20 μM combined with IFN-α 100 IU/ml", "result": "anti-HCV activity of IFN-α was improved"},
      {"measurement": "NS5B phosphorylation", "setting": "[7]", "result": "also inhibited NS5B phosphorylation"}
    ]},
    {"compound": "O=C(Nc1ccncc1)c1ccc[nH]c1=O", "note": "[compound 20, 2-oxo-N-(4-pyridinyl)-1,2-dihydro-3-pyridinecarboxamide]", "values": [
      {"measurement": "decrease of HCV RNA titers with respect to DMSO control", "setting": "[3]", "result": "approximately 60%"}
    ]},
    {"compound": "C[C@@H](N)[C@H]1CC[C@H](C(=O)Nc2ccncc2)CC1", "note": "[Y27632]", "values": [
      {"measurement": "decrease of HCV RNA titers with respect to DMSO control", "setting": "[3]", "result": 49, "unit": "%"}
    ]}
  ]
}
